Results taken from publication PMC11087268, “A folate inhibitor exploits metabolic differences in Pseudomonas aeruginosa for narrow-spectrum targeting” (Nature Microbiology, 2024).
Converted amounts (≈) assume the structure as drawn. “And” between values parts separate entries of the source, which are not always exact repeats. Identical values can stand only once.

How the values were obtained:
[1] = test system: Acinetobacter baumannii BAA-125; assay: MIC against A. baumannii BAA-125 in LB broth; assay type: cell-based; details: BAA125, 16 h, 37 °C, OD600
Procedure: (§1) Overnight cultures were diluted 1:150 in LB broth and added to a 96-well plate. Antibiotics were serially diluted 1:2 and added to columns of the 96-well plate and grown at 37 °C with continuous shaking. Cell growth was measured using optical density at 600 nm (OD600). MIC assays were performed in either BioTek Synergy HT or Tecan InfiniteM200 Pro microplate readers.

[2] = test system: Staphylococcus aureus USA300; assay: MIC against S. aureus USA300 in LB broth; assay type: cell-based; details: USA300, 16 h
Procedure: as §1

[3] = test system: PBMC (peripheral blood mononuclear cell); assay: Mammalian cell cytotoxicity, PBMC; assay type: cell-based, human
Procedure: HK-2 (500 cells per well) (ATCC CRL-2190), HLF (500 cells per well) (Cell Applications 506K-05a), WI-38 (500 cells per well) (ATCC CCL-75) or PBMC (5,000 cells per well) (TPCS PB010C) cells were seeded in white opaque 384-well plates. After 24 h, DMSO or compounds were added in 3-fold dilutions and cells incubated for 72 h. For PBMC, CellTiter-Glo reagent was added in equal volume and incubated for 30 min, after which luminescence was read. For other cell types, CyQUANT detection reagent was added in equal volume and cells incubated for 1 h, after which fluorescence was read with standard green filter set […]. Cell toxicity was evaluated by Pharmaron.

[4] = test system: Escherichia coli ATCC BAA-198; assay: MIC (WuXi, Mueller–Hinton broth) against E. coli ATCC BAA-198; assay type: cell-based; details: ATCCBAA198
Procedure: (§2) Bacterial colonies (4–8) of strains of interest were vortexed in saline and adjusted to an OD600 of 0.2. Strains were diluted 1:200 into CAMHB media in 96-well plates. Antibiotics were serially diluted 1:3 in DMSO, and 1 μl of each dilution was added to bacteria. The plates were incubated for 18–20 h at 37 °C before observation.

[5] = test system: P. aeruginosa PA14; assay: Growth competition assay, c.f.u. of P. aeruginosa PA14; assay type: cell-based, Pseudomonas aeruginosa
Procedure: Cultures of each species were grown separately as well as being mixed 1:1. […] The number of colonies on Pseudomonas Selection Agar plates is reported as the c.f.u. ml^−1 of P. aeruginosa. To calculate c.f.u.s ml^−1 of E. coli MG1655, c.f.u.s ml^−1 were determined from LB agar plates and the c.f.u.s ml^−1 of P. aeruginosa were subtracted from these values.

[6] = test system: ESKAPE pathogens; assay: Growth inhibition of P. aeruginosa PA01, ATTC 27853 and ESKAPE pathogens (MIC panel); assay type: cell-based; details: P. aeruginosa PA01 and ATTC 27853 and all 5 ESKAPE pathogens tested
Procedure: as §1, §2

[7] = test system: E. coli MG1655; assay: Growth of E. coli MG1655 in TMI-supplemented media with fluorofolin; assay type: cell-based, Escherichia coli; details: for OD600 of E. coli MG1655: Fluorofolin + TMI

## Nc1nc(N)c2c(ccc3c2ccn3Cc2ccnc(F)c2)n1 [fluorofolin]
[1]
  MIC: 31.2 µg/mL
[2]
  MIC: 0.4 µg/mL
[3]; Homo sapiens, PBMC, 72 h, CellTiter-Glo, read-out: IC50 Fluorofolin
  IC50: 39.8 µg/mL (≈ 129 µM)
[3]; PBMCs
  increase in IC50 compared with IRS-16: 9.6 fold
[4]
  MIC: 7.11 µg/mL (≈ 23.1 µM)
[5]; PA14 : E. coli MG1655 1:1, 50 μg ml^−1 fluorofolin, selective plating
  growth in co-culture with TMI supplementation: selectively inhibited the growth of P. aeruginosa
[5]; Panel C, Fluorofolin
  P. Aeruginosa PA14 CFU/mL: 39 CFU/mL and 46 CFU/mL and 40 CFU/mL
[6]
  concentration inhibiting growth: less than 50 µg ml^−1
[7]; E. coli MG1655, 0.3 mM TMI, fluorofolin 2× MIC
  rescue of growth inhibition by TMI supplementation: could also be rescued with TMI supplementation
[7]; Time 10 min
  OD600 of E. coli MG1655: 0.007
[7]; Time 70 min
  OD600 of E. coli MG1655: 0.0105
[7]; Time 80 min
  OD600 of E. coli MG1655: 0.012
[7]; Time 90 min
  OD600 of E. coli MG1655: 0.0135
[7]; Time 100 min
  OD600 of E. coli MG1655: 0.015
[7]; Time 110 min
  OD600 of E. coli MG1655: 0.0175
[7]; Time 120 min
  OD600 of E. coli MG1655: 0.0195
[7]; Time 130 min
  OD600 of E. coli MG1655: 0.0225
[7]; Time 140 min
  OD600 of E. coli MG1655: 0.025
[7]; Time 150 min
  OD600 of E. coli MG1655: 0.028
[7]; Time 160 min
  OD600 of E. coli MG1655: 0.0305
[7]; Time 170 min
  OD600 of E. coli MG1655: 0.0345
[7]; Time 180 min
  OD600 of E. coli MG1655: 0.038
[7]; Time 190 min
  OD600 of E. coli MG1655: 0.042
[7]; Time 200 min
  OD600 of E. coli MG1655: 0.0465
[7]; Time 210 min
  OD600 of E. coli MG1655: 0.052
[7]; Time 220 min
  OD600 of E. coli MG1655: 0.0575
[7]; Time 230 min
  OD600 of E. coli MG1655: 0.0625
[7]; Time 240 min
  OD600 of E. coli MG1655: 0.068
[7]; Time 250 min
  OD600 of E. coli MG1655: 0.0745
[7]; Time 260 min
  OD600 of E. coli MG1655: 0.0815
[7]; Time 270 min
  OD600 of E. coli MG1655: 0.0875
[7]; Time 280 min
  OD600 of E. coli MG1655: 0.094
[7]; Time 290 min
  OD600 of E. coli MG1655: 0.1
[7]; Time 300 min
  OD600 of E. coli MG1655: 0.105
[7]; Time 310 min
  OD600 of E. coli MG1655: 0.1105
[7]; Time 320 min
  OD600 of E. coli MG1655: 0.1155
[7]; Time 330 min
  OD600 of E. coli MG1655: 0.1215
[7]; Time 340 min
  OD600 of E. coli MG1655: 0.1265
[7]; Time 350 min
  OD600 of E. coli MG1655: 0.132
[7]; Time 360 min
  OD600 of E. coli MG1655: 0.136
[7]; Time 370 min
  OD600 of E. coli MG1655: 0.14
[7]; Time 380 min
  OD600 of E. coli MG1655: 0.1435
[7]; Time 390 min
  OD600 of E. coli MG1655: 0.147
[7]; Time 400 min
  OD600 of E. coli MG1655: 0.151
[7]; Time 410 min
  OD600 of E. coli MG1655: 0.155
[7]; Time 420 min
  OD600 of E. coli MG1655: 0.1585
[7]; Time 430 min
  OD600 of E. coli MG1655: 0.163
[7]; Time 440 min
  OD600 of E. coli MG1655: 0.167
[7]; Time 450 min
  OD600 of E. coli MG1655: 0.1715
[7]; Time 460 min
  OD600 of E. coli MG1655: 0.176
[7]; Time 470 min
  OD600 of E. coli MG1655: 0.181
[7]; Time 480 min
  OD600 of E. coli MG1655: 0.1855
[7]; Time 490 min
  OD600 of E. coli MG1655: 0.19
[7]; Time 500 min
  OD600 of E. coli MG1655: 0.1955
[7]; Time 510 min
  OD600 of E. coli MG1655: 0.2005
